Results as given in ChEMBL document CHEMBL4476887, “Lysyl oxidase-like 2 inhibitors and uses thereof” (2018).

Target: T1, Lysyl oxidase homolog 2 (Homo sapiens, UniProt Q9Y4K0)
T1 sequence (Q9Y4K0 whole entry): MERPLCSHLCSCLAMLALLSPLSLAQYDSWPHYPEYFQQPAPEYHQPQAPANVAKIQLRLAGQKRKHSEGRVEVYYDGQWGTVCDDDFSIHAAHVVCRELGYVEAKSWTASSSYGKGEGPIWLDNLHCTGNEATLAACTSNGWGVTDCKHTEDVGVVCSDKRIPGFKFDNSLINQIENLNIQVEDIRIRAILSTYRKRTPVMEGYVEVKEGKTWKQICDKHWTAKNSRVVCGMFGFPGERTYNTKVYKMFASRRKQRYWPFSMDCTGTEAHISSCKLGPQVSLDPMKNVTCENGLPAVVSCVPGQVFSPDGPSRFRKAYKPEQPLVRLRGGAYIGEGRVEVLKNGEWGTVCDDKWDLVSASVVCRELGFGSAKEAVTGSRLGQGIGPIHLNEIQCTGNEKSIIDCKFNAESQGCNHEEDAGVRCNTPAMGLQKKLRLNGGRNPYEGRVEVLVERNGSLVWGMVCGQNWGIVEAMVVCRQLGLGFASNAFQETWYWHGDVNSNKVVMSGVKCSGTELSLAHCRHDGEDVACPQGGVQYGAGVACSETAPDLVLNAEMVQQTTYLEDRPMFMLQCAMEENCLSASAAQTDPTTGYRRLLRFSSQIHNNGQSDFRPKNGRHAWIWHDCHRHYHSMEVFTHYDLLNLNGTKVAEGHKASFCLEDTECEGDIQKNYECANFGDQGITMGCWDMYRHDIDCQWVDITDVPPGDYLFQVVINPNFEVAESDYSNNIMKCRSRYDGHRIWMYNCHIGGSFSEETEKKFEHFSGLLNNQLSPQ
Experiment: Inhibition of human LOXL2 expressed in CHO cells incubated for 2 hrs followed by 1,5-Diaminopentane addition by Amplex Red fluorescence based assay
Assay type: cell-based

| Compound | IC50 [nM] |
| --- | --- |
| NCCc1nc2cc(Cl)ccc2[nH]1 | > 1000 |
| NCc1cc2c(cn1)ncn2-c1cccc(C(=O)Nc2ccccc2)c1 | < 300 |
| NCc1nc2cc(Cl)ccc2[nH]1 | < 300 |
| Cc1c(F)ccc2cc(CN)[nH]c12 | > 1000 |
| NCc1cc2cc(Br)ccc2[nH]1 | < 300 |
| NCCc1nn2cnnc2s1 | > 1000 |
| NCc1cc2ccccc2s1 | 300 to 1000 |
| NCc1nc2ccccc2s1 | < 300 |
| Cn1c(CN)cc2ccccc21 | > 1000 |
| NCc1cc2ccc(-c3cncc(C(=O)Nc4ccccc4)c3)cc2s1 | < 300 |
| NCc1cc2cc(-c3ccc(F)cc3)ccc2[nH]1 | < 300 |
| NCc1nc2ncccc2[nH]1 | < 300 |
| NCc1nc2cc(Cl)ccc2s1 | 300 to 1000 |
| NCc1cc2cc(I)ccc2[nH]1 | < 300 |
| NCC1=CC(=O)c2ccccc2C1=O | < 300 |
| NCc1cc(=O)[nH]c2ccccc12 | > 1000 |
| NCc1cc2cc(Br)ccc2o1 | > 1000 |
| COc1ncccc1-c1ccc2[nH]c(CN)cc2c1 | 300 to 1000 |
| NCc1nc2ccccc2[nH]1 | < 300 |
| NCc1cnccn1 | < 300 |
| NCc1cc(=O)c2cc(Br)ccc2s1 | < 300 |
| NCc1cc(Oc2cccc(C(=O)Nc3ccccc3)c2)n2nccc2n1 | 300 to 1000 |
| CC(C)(C)c1ccc2oc(CN)nc2c1 | < 300 |
| NCc1cc2cc(-c3ccc(Oc4ccccc4)nc3)ccc2[nH]1 | < 300 |

| Compound | IC50 [nM] |
| --- | --- |
| NCCc1nc(-c2ccncc2)cs1 | 300 to 1000 |
| NCc1ccc2[nH]cnc2c1 | > 1000 |
| NCc1cc2cc(C3CC3)ccc2s1 | < 300 |
| NCCc1cc2ccccc2[nH]1 | > 1000 |
| NCc1cc2ccc(Br)cc2c(=O)[nH]1 | < 300 |
| NCCc1nc2cc(F)ccc2s1 | < 300 |
| NCc1cc2ccc(-c3cnc4ccccc4c3)cc2c(=O)[nH]1 | < 300 |
| NCc1cc(O)n2nccc2n1 | 300 to 1000 |
| NCc1nc2cc3ccccc3cc2[nH]1 | < 300 |
| COc1ccc2cc(CN)[nH]c(=O)c2c1 | < 300 |
| Cn1cc(-c2ccc3[nH]c(CN)cc3c2)cn1 | 300 to 1000 |
| NCc1cc2cc(-c3cncc4ccccc34)ccc2[nH]1 | < 300 |
| NCc1nc2cc(Br)cnc2[nH]1 | < 300 |
| NCc1ccc2[nH]ccc2n1 | > 1000 |
| NCc1cc(Oc2cccc(C(=O)Nc3ccccc3)c2)n2ccnc2n1 | < 300 |
| NCc1cc2cc(-c3ccc4nccn4c3)ccc2[nH]1 | < 300 |
| NCCc1nc2ccccc2o1 | 300 to 1000 |
| NCCc1nc2ccc(F)cc2[nH]1 | > 1000 |
| COc1ccc(-c2ccc3[nH]c(CN)cc3c2)cn1 | 300 to 1000 |
| NCc1cc2c(cn1)ncn2Cc1cccc(C(=O)Nc2ccccc2)c1 | > 1000 |
| NCc1cc2ccc(-c3cccnc3)cc2s1 | < 300 |
| NCc1cnnc(Oc2cccc(C(=O)Nc3ccccc3)c2)c1 | < 300 |
| NCc1cc2occc2s1 | > 1000 |
| NCCc1nc2ccccc2s1 | < 300 |

| Compound | IC50 [nM] |
| --- | --- |
| Cn1cnc2ccc(-c3ccc4[nH]c(CN)cc4c3)cc21 | < 300 |
| CC(CN)c1nc2ccccc2s1 (racemic) | 300 to 1000 |
| NCc1cccnn1 | < 300 |
| NCc1cc2cc(-c3cccnc3)ccc2s1 | < 300 |
| NCc1cc2ccc(-c3ccc(C(=O)Nc4ccccc4)nc3)cc2s1 | < 300 |
| NCCc1nc2ccccc2[nH]1 | > 1000 |
| NCc1cc2ccccc2o1 | 300 to 1000 |
| NCc1cc2cc(Cl)ccc2[nH]1 | 300 to 1000 |
| NCC(O)c1cc2ccccc2s1 (racemic) | > 1000 |
| NCc1cc2ccc(-c3ccc(F)cc3)cc2c(=O)[nH]1 | < 300 |
| NCc1ccnnc1 | 300 to 1000 |
| NCc1cc2cc(F)ccc2[nH]1 | > 1000 |
| Cc1c(CN)oc2ccc(F)cc12 | > 1000 |
| CC(C)(C)c1ccc2sc(CN)cc2c1 | < 300 |
| NCc1cc2ccccc2[nH]1 [2-INDOLYLMETHANAMINE] | 300 to 1000 |
| NCc1cc2ccc(-n3cc(Br)cn3)cc2c(=O)[nH]1 | < 300 |
| NCc1cc2ccncc2[nH]1 | < 300 |
| NCc1cc2ccc(-c3ccccc3)cc2c(=O)[nH]1 | < 300 |
| NCc1cc2cc(-c3ccc(OCc4ccccc4)nc3)ccc2[nH]1 | 300 to 1000 |
| Cc1cc(Br)cc2cc(CN)oc12 | < 300 |
| Cc1ccc2[nH]c(CN)cc2c1 | 300 to 1000 |
| NCc1cc2ccc(Br)cc2s1 | < 300 |
| COC(=O)c1cncc(-c2ccc3[nH]c(CN)cc3c2)c1 | < 300 |
| NCc1ccc2ncccc2c1 | > 1000 |

| Compound | IC50 [nM] |
| --- | --- |
| NCc1cc2cc(Br)ccc2s1 | < 300 |
| NCc1cc2ccc(C#Cc3ccccc3)cc2c(=O)[nH]1 | < 300 |
| NCc1cc(Nc2cccc(C(=O)Nc3ccccc3)c2)n2ccnc2n1 | < 300 |
| NCc1cc2cc(-c3cccnc3)ccc2[nH]1 | < 300 |
| NCCc1nc2cccc(Cl)c2o1 | < 300 |
| NCc1nc2ccccc2o1 | > 1000 |
| NCCc1nc(-c2ccccc2)cs1 | 300 to 1000 |
| C#Cc1ccc2cc(CN)[nH]c(=O)c2c1 | < 300 |
| COc1ccc2[nH]c(CN)cc2c1 | 300 to 1000 |
| NCCc1nc2cc(Cl)ccc2s1 | < 300 |
| NCc1cc2cc(F)ccc2s1 | < 300 |
| NCc1cc2cc(-c3cnc4ccccc4c3)ccc2[nH]1 | < 300 |
| NCCc1cc2ccccc2o1 | > 1000 |
| NCc1ccnc(Oc2cccc(C(=O)Nc3ccccc3)c2)n1 | 300 to 1000 |
| NCc1sc2ccccc2c1Cl | 300 to 1000 |
| NCc1cc2cc(-c3cncc(O)c3)ccc2[nH]1 | 300 to 1000 |
| NCc1cc2ccccc2c(=O)[nH]1 | 300 to 1000 |
| NCc1cc2ncccc2[nH]1 | < 300 |
| NCCc1nc2cc(Cl)ccc2o1 | < 300 |
| NCc1cc2ccc(-c3cncc(C(=O)NCc4ccccc4)c3)cc2s1 | < 300 |
| NCCc1cc2ccccc2s1 | > 1000 |
